Structures can show the parent of a compound that is named as a salt.
Legend:
[1] = test system: dopamine receptor; conditions: cited from earlier work
[2] = biological target: T1, human D1 receptor (Homo sapiens, UniProt P21728); test: Adenylate cyclase activity (cAMP stimulation in HEK-D1 cells); assay type: cell-based; conditions: read-out: IA (relative intrinsic activity to dopamine)
T1 construct: expressed in transfected cells; host or cells: HEK-D1 cells (HEK cells expressing the human D1 clone)
Experimental: Adenylate cyclase activity: Human D1 receptor.
The interaction of dopamine or a dopamine D-1 receptor agonist with the D-1 receptor causes a dose-dependent increase in the adenylate cyclase-catalyzed conversion of adenosine triphosphate (ATP) to cyclic adenosine monophosphate (cAMP). The functional activity of the compounds of the invention was determined by assaying their ability to either stimulate the enzyme adenylate cyclase to produce cAMP (agonist activity). Assays were conducted in 24-well or 48-well tissue culture plates. The assay buffer consisted of DPBS containing CaCl2 and MgCl2, 0.1% glucose, 0.5 mM IBMX, 0.004% ascorbic acid and 10 μM propranolol to inhibit potential cross activation of the endogenous β-receptor. Culture medium was removed, and HEK-D1 cell was washed once with assay buffer, and 400 μl fresh assay buffer was added for 10 min. Next, 100 μl of dopamine or dopamine agonist, dissolved in assay buffer, was added to the cell for an additional 15 min, and incubations were terminated with 500 μL 0.2N HCl. cAMP contents were determined by RIA using the automated Attoflo™ system (Rockville, Md.).
The hD1c ED50 level is a measure of the potency, showing the concentration (nM) at which a 50% response is obtained; a lower number indicates a higher potency. High intrinsic activity (IA) indicates the activity of the compound as a dopamine agonist.

[3] = test system: striatal dopamine receptors; test: Rotation behavior, rat rotational model (6-hydroxydopamine unilateral lesion); assay type: in vivo; conditions: sc, 6-hydroxydopamine-lesioned rats
Experimental: The behavioral assay used was based on the rat rotational model. Striatal dopamine was depleted by the intracranial injection of 6-hydroxydopamine, a neurotoxin which specifically destroys catecholaminergic neurons. […] This unilateral lesioning of dopamine-containing neurons causes the post-synaptic dopamine receptors to become supersensitive to dopaminergic stimulation in behavioral assays. […] Agonist activity was measured by the ability of the test compound to induce rotation.
A lower number indicates a higher potency.

[4] = test system: schizophrenia; conditions: cited from earlier work; for antipsychotic effect: low doses
[5] = test system: Parkinson's disease; conditions: alone, some early Parkinson's disease patients; cited from earlier work
[6] = test system: neural feeding mechanisms; conditions: rats; cited from earlier work
[7] = test system: acute renal failure; conditions: in combination with diuretics, patients; cited from earlier work

T1 sequence (P21728 whole entry): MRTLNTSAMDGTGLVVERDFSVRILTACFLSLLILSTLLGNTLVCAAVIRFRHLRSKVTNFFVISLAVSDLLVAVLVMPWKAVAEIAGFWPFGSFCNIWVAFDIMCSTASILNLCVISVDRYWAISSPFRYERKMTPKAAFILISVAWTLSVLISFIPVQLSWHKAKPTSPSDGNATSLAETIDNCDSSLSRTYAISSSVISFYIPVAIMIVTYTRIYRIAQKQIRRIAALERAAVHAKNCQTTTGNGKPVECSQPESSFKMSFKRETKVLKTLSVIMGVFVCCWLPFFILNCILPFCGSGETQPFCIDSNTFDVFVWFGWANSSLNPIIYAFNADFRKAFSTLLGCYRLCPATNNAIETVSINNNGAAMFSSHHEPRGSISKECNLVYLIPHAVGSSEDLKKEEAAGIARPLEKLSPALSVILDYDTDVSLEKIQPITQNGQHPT

Compound	Emax [2] [%]	also measured
Oc1cc2c(cc1O)[C@H]1c3ccccc3CN[C@@H]1CC2 (racemic) [dihydrexidine]		dopamine agonist activity [1]: active as a dopamine agonist
Oc1cc2c(cc1O)[C@@H]1c3cccnc3CN[C@H]1CC2 (relative stereo) [Example 1, trans-4,6-diaza-5,6,6a,7,8,12b-hexahydrobenzo[c]phenanthrene 10,11-diol dihydrobromide]	125	
Cc1ccc2c(n1)CN[C@H]1CCc3cc(O)c(O)cc3[C@H]21 (relative stereo) [Example 2, trans-4,6-diaza-5,6,6a,7,8,12b-hexahydro-3-methylbenzo[c]phenanthrene 10,11-diol dihydrobromide]	121	
CCCc1ccc2c(n1)CN[C@H]1CCc3cc(O)c(O)cc3[C@H]21 (relative stereo) [Example 3, trans-4,6-diaza-5,6,6a,7,8,12b-hexahydro-3-propylbenzo[c]phenanthrene 10,11-diol dihydrobromide]	116	Rotation behavior EC50 [3]: 0.14 µmol/kg
COc1ccc2c(n1)CN[C@H]1CCc3cc(O)c(O)cc3[C@H]21 (relative stereo) [Example 4, trans-4,6-diaza-5,6,6a,7,8,12b-hexahydro-3-methoxybenzo[c]phenanthrene 10,11-diol dihydrobromide]	114	
Oc1cc2c(cc1O)[C@@H]1c3ccc(F)nc3CN[C@H]1CC2 (relative stereo) [Example 5, trans-4,6-diaza-3-fluoro-5,6,6a,7,8,12 b-hexahydrobenzo[c]phenanthrene 10,11-diol dihydrobromide]	141	Rotation behavior EC50 [3]: 0.82 µmol/kg
Cc1cnc2c(c1)[C@H]1c3cc(O)c(O)cc3CC[C@@H]1NC2 (relative stereo) [Example 7, trans-4,6-diaza-5,6,6a,7,8,12b-hexahydro-2-methylbenzo[c]phenanthrene 10,11-diol dihydrobromide]	156	
CCCCc1cnc2c(c1)[C@H]1c3cc(O)c(O)cc3CC[C@@H]1NC2 (relative stereo) [Example 8, trans-4,6-diaza-5,6,6a,7,8,12b-hexahydro-2-butylbenzo[c]phenanthrene 10,11-diol dihydrobromide]	118	
Cc1cc2c(nc1C)CN[C@H]1CCc3cc(O)c(O)cc3[C@H]21 (relative stereo) [Example 9, trans-4,6 diaza-5,6,6a,7,8,12b-hexahdro-2,3-dimethylbenzo[c]phenanthrene 10,11-diol dihydrobromide]	134	
Oc1cc2c(cc1O)[C@@H]1c3cc4c(nc3CN[C@H]1CC2)CCCC4 (relative stereo) [Example 10, trans-4,6-diaza-5,6,6a,7,8,12b-hexahydro-2,3-cyclohexenobenzo[c]phenanthrene 10,11-diol dihydrobromide]	136	
Oc1cc2c(cc1O)[C@@H]1c3cnccc3CN[C@H]1CC2 (relative stereo) [Example 11, trans-2,6-diaza-5,6,6a,7,8,12b-hexahydrobenzo[c]phenanthrene 10,11-diol dihydrobromide]	81	
Oc1cc2c(cc1O)[C@@H]1c3cncc(F)c3CN[C@H]1CC2 (relative stereo) [Example 12, trans-2,6-diaza-4-fluoro-5,6,6a,7,8,12b-hexahydrobenzo[c]phenanthrene 10,11-diol dihydrobromide]	126	
Oc1cc2c(cc1O)[C@@H]1c3ccncc3CN[C@H]1CC2 (relative stereo) [Example 13, trans-3,6-diaza-5,6,6a,7,8,12b-hexahydrobenzo[c]phenanthrene 10,11-diol dihydrobromide]	131	
Cc1cncc2c1CN[C@H]1CCc3cc(O)c(O)cc3[C@H]21 (relative stereo) [Example 14, trans-2,6-diaza-4-methyl-5,6,6a,7,8,12b-hexahydrobenzo[c]phenanthrene 10,11-diol dihydrobromide]	75	
CC(C)C[C@H]1C(=O)N2CCC[C@H]2[C@]2(O)O[C@](NC(=O)[C@@H]3C=C4c5cccc6[nH]c(Br)c(c56)C[C@H]4N(C)C3)(C(C)C)C(=O)N12 [Bromocriptine]		antipsychotic effect [4]: produce antipsychotic effects; effect on Parkinson's disease symptoms [5]: relieve Parkinson's disease symptoms in some early Parkinson's disease patients
Oc1cc2c(cc1O)C(c1ccccc1)CNCC2 (stereo not shown) [SKF 38393]		effect on side-effects of haloperidol ([4]; in conjunction with haloperidol): ameliorate the undesired side-effects of the haloperidol; effect on food intake [6]: decrease food intake by rats
CN1CCc2cccc3c2[C@H]1Cc1ccc(O)c(O)c1-3 [apomorphine]		antipsychotic effect [4]: produce antipsychotic effects
NCCc1ccc(O)c(O)c1 [dopamine]		effect on acute renal failure [7]: reverse radio-contrast media-induced acute renal failure

From patent US5668141A, “Trans-2,6-,3,6-and 4,6-diaza-5,6,6a,7,8,12b-hexahydrobenzo[c]phenanthrene compounds as dopamine agonists” (Abbott Laboratories, priority 1996, dated 1997)
